US6583132B1, “Oxidant scavengers” (Duke University, priority 1993, dated 2003)
Each block holds one compound with its values, some of them ahead of it.

Legend:
[1] = Catalase activity, Clark oxygen electrode; type: biochemical; conditions: 1 mM hydrogen peroxide; oxygen formation over 2 minutes
Description: Catalase activity can be monitored by measuring absorbance at 240 nm in the presence of hydrogen peroxide (see Beers and Sizer, J. Biol. Chem. 195:133 (1952)) or by measuring oxygen evolution with a Clark oxygen electrode (Del Rio et al, Anal. Biochem. 80:409 (1977)). Peroxidase activity can be measured spectrophotometrically as previously described by Putter and Becker: Peroxidases. In: Methods of Enzymatic Analysis, H. U. Bergmeyer (ed.), Verlag Chemie, Weinheim, pp. 286-292 (1983. Aconitase activity can be measured as described in Example XI below.
Catalase activity was measured by means of a Clark oxygen electrode using a modified assay previously described by Del Rio et al, Anal. Biochem. 80:409 (1977). Briefly, reactions were performed in a nitrogen degassed phosphate buffer (50 mM, pH 7.8) containing 0.1 mM EDTA at 25° C. Three concentrations of hydrogen peroxide (1-4 mM) and four metalloporphyrin concentrations (0.5-50 μM) were used to determine second order rate constants. The rate of oxygen evolution was followed for 2 minutes.
^3Catalase activity determined as described by Del Rio et al, Anal. Biochem. 80:409 )1977). Metalloporphyrins were assayed at various concentrations in the presence of 1 mM hydrogen peroxide for catalase-like activity. A Clark electrode was used to measure the formation of oxygen from the breakdown of hydrogen peroxide over a period of 2 minutes.

[2] = SOD activity (McCord and Fridovich); type: biochemical; conditions: In vitro Biochemistry
Method: SOD activity can be monitored in the presence and absence of EDTA using the method of McCord and Fridovich (J. Biol. Chem. 244:6049 (1969)). The efficacy of a mimetic can be determined by measuring the effect of the mimetic on the growth of a SOD null E. coli strain versus a wild type strain. Specifically, wild type E. coli (AB1157) and SOD null E. coli. (JI132) can be grown in M9 medium containing 0.2% casamino acids and 0.2% glucose at pH 7.0 and 37° C.; growth can be monitored in terms of turbidity followed at 700 nm spectrophotometrically. Active mimetics can be tested for toxicity in mammalian cell culture by measuring lactate dehydrogenase (LDH) release. Specifically, rat L2 cells (a lung Type II like cell; (Kaighn and Douglas, J. Cell Biol. 59:106a (1973)) can be grown in Ham's F-12 medium with 10% fetal calf serum supplement at pH 7.4 and 37° C.; cells can be seeded at equal densities in 24 well culture dishes and grown to approximately 90% confluence; SOD mimetics can be added to the cells at log doses (eg micromolar doses in minimal essential medium (MEM)) and incubated for 24 hours. Toxicity can be assessed by morphology and by measuring the release of the cytosolic injury marker, LDH (eg on a thermokinetic plate reader), as described by Vassault (In: Methods of Enzymatic Analysis, Bergmeyer (ed) pp. 118-26 (1983); oxidation of NADH is measured at 340 nm). Efficacy of active mimetics can be assessed by determining their ability to protect mammalian cells against methylviologen (paraquat)-induced toxicity. Specifically, rat L2 cells grown as described above and seeded into 24 well dishes can be pre-incubated with various concentrations of the SOD mimetic and then incubated with a concentration of methylviologen previously shown to produce an LC75 in control L2 cells. Efficacy of the mimetic can be correlated with a decrease in the methylviologen-induced LDH release (St. Clair et al, FEBS Lett. 293:199 (1991)). The efficacy of SOD mimetics can be tested in vivo with mouse and/or rat models using both aerosol administration and parenteral injection. For example, male Balb/c mice can be randomized into 4 groups of 8 mice each to form a standard 2×2 contingency statistical model. Animals can be treated with either paraquat (40 mg/kg, ip) or saline and treated with SOD mimetic or vehicle control. Lung injury can be assessed 48 hours after paraquat treatment by analysis of bronchoalveolar lavage fluid (BALF) damage parameters (LDH, protein and % PMN) as previously described (Hampson et al, Tox. Appl. Pharm. 98:206 (1989); Day et al, J. Pharm. Methods 24:1 (1990)). […]
^2SOD activity determined as described by McCord and Fridovich, J. Biol. Chem. […] (1969).

J774 macrophages [3] = test: Mitochondrial respiration (MTT) in J774 macrophages; type: cell-based; conditions: LPS-treated and LPS and IFN-treated cells, 24 h
Method: (§1) Cell culture: J774 macrophages were cultured in DMEM medium, supplemented with L-glutamine (3.5 mmol/L) and 10% fetal calf serum. Cells were cultured in 96-well plates (200 μl medium/well) until confluence. To induce the inducible isoform of nitric oxide synthase (iNOS), fresh culture medium containing E. coli LPS (011:B4, 10 μg/ml) alone or in combination with murine γ-interferon (γ-IFN, 10 U/ml) was added in the presence or absence of the NOS inhibitor, the SOD mimetic of the combination of the two compounds for 24 h. Moreover, cells were exposed to the NO donor compounds S-nitroso-N-acetyl-DL-penicillamine (SNAP) (3 mM) and diethylamine:NO NONOate (DNO) (3 mM) for 24 h or to authentic peroxynitrite (1 mM) for 1 h). Nitride/nitrate concentration in the medium and mitochondrial respiration were then measured as described below.
Measurement of mitochondrial respiration: Cell respiration was assessed by the mitochondrial-dependent reduction of 3-(4,5-dimethylthiazol-2-yl)-2,5-diphenyltetrazolium bromide (MTT) to formazan. Cells in 96-well plates were incubated at 37° C. with MTT (0.2 mg/ml) for 1 hour. Culture medium was removed by aspiration and the cells were solubilized in DMSO (100 μl). The extent of reduction of MTT to formazan within cells was quantitated by the measurement of OD550. All measurements were corrected for the interference of MnTBAP at this wavelength.

rat cortical cells = test: Neurotoxicity (LDH release) in cortical cell culture; type: cell-based
Method: (§2) Tissue culture: Mixed neuronal and glial cultures were prepared from embryonic day-18 rat cerebral cortices (Sprague-Dawley, Zivic Miller). Briefly, the cerebral cortices were dissected and enzymatically dissociated by incubation in Ca^++-, Mg^++-free Hank's balanced salt solution (HBSS) supplemented with 10 mM HEPES and 0.25% trypsin for 20 min. at 37° C. The tissue was rinsed and dispersed into single cell suspension by gentle passage through a fire polished Pasteur pipette. The cell suspension was centrifuged and resuspended in Minimum Essential Media (MEM), containing Earle's salts supplemented with 3 g/L glucose, 5% horse serum and 5% fetal bovine serum (growth media). The cells were plated in poly-D-lysine-coated multi-well plates: 12-well plates for aconitase measurement, and 24 well plates for toxicity experiments. Cells were maintained at 37° C. in a humidified incubator with 5% CO2/95% air in growth media. Media was not replaced so as to reduce glial overgrowth and neuronal loss. Mature cells (14-17 days in vitro) were used for all experiments.
(§3) Cell treatment: The growth media was replaced with MEM supplemented with 25 mM glucose (MEM-g). For both neurotoxicity studies and aconitase measurement, cells were incubated in the designated treatment for the indicated length of time at 37° C. Unless otherwise specified, antagonists or SOD-mimetics were added 15 min. prior to agonists. For measurement of neurotoxicity, cells were incubated with treatments for 18 hr at 37° C. in MEM-g. To access the ability of antagonists to inhibit acute NMDA toxicity or rescue cells from an ongoing NMDA insult, an alternate paradigm of NMDA treatment was used in addition to the one describe above. In this paradigm, growth media was replaced with HBSS^+ (Ca^++-, Mg^++-free Hank's Balanced Salt Solution supplemented with 2 mM CaCl2, 1 mM NaHCO3, 10 mM HEPES and 5 μM glycine), cells were treated with vehicle or 100 μM NMDA for 15 min. after which HBSS^+ was replaced with MEM-g and cells were returned to the incubator for 18 additional hrs. Antagonsists or SOD-mimetics were added to the cells 15 min. before NMDA exposure or 15, 30 or 60 min. following final media replacement. For determination of Ca^++-dependence, cells were incubated in HBSS^+ with no added Ca^++. When kainate (KA) was used as an agonist, 100 μM D-APV was routinely included to block secondary NMDA receptor activation. Catalase (100 U/ml) was always included when xanthine plus xanthine oxidase (X+XO) was used as a treatment to rule out the contribution of hydrogen peroxide.
Neurotoxicity studies: Neurotoxicity was determined by the measurement of LDH released in the supernatant media as previously described (Patel et al, Toxicol. Appl. Pharmacol. 115:124 (1991) and Neurotoxicology 14:35 (1992)). LDH was measured by the method of Vassault, Lactate dehydrogenase. In: Methods of Enzymatic Analysis, Bergmeyer HU (ed), Verlag Chemie, Weinheim, pp. 118-126 (1983). Additionally, cell death was confirmed with ethidium-1 homodimer (EthD-1). Briefly, the cells were washed with HBSS, loaded with 20 μM EthD-1 for 30 min,. rinsed and viewed through fluorescence optics. The number of dead cells labeled with EthD-1 were counted in 4-6 randomly selected fields, the numbers averaged to give an estimate of cell death and the experiment was repeated 3 times.

aconitase = test: Aconitase activity in cortical cell lysates; type: cell-based, rat; conditions: 1 mM NOS inhibitor
Method: as §2, §3
Aconitase measurement: For the measurement of aconitase, following treatment with agents, media was removed and cells lysed in ice-cold 50 mM, Tris/HCl, pH 7.4 containing 0.6 mM MnCl2, 1 mM L-cysteine, 1 mM citrate and 0.5% Triton-X 100. The aconitase activity of cell lysates was measured spectrophotometrically by monitoring the formation of cis-aconitate from isocitrate at 240 nm in 50 mM Tris/HCl, pH 7.4, containing 0.6 mM MnCl2 and 20 mM isocitrate at 25° C. (Kreb and Holzach, Biochem. J. 52:527 (1952); Gardner and Fridovich, J. Biol. Chem. 267:8757 (1992)). […] Aconitase activity in cortical cell lysates was inhibited by 0.1 mM potassium ferricyanide or by boiling of sample.

J774 macrophages [4] = test: Nitrite/nitrate production in J774 macrophages; type: cell-based
Method: as §1
Measurement of nitrite/nitrate production: Nitride/nitrate production, an indicator of NO synthesis, was measured in the supernatant. First, nitrate in the culture medium was reduced to nitrite by incubation with nitrate reductase (670 mU/ml) and NADPH (160 μM) at room temperature for 2 h. After 2 h, nitrite concentration in the samples were measured by the Griess reaction, by adding 100 μl of Griess reagent (1% sulfanilamide and 0.1% naphthylethylenediamide in 5% phosphoric acid) to 100 μl samples of conditioned medium. The optical density at 550 nm (OD550) was measured using a Spectramax 250 microplate reader (Molecular Devices, Sunnyvale, Calif.) Nitrate concentrations were calculated by comparison with OD550 of standard solutions of sodium nitrate prepared in culture medium. All measurements were corrected for the interference of MnTBAP at this wavelength.

[5] = test system: Calf pulmonary endothelial cell (CPA-47) line; test: Glucose oxidase hydrogen peroxide injury of CPA-47, Cr^51 release; type: cell-based; conditions: glucose oxidase 100 Mu/ml, 4 hours; 1 hour pretreatment
Method: (§4) Calf pulmonary endothelial cell (CPA-47) line was grown to near confluence in 12-well plates with F-12K medium containing 10% fetal calf serum. CPA-47 cells were loaded with Cr^51 as previously described by Simon et al J. Clin. Invest. 78:1375 (1986) in high glucose minimum essential medium (DMEM). Cells were pretreated with MnTBAP (100 μM) for 1 hour and then exposed to various concentrations of hydrogen peroxide generator, glucose oxidase, for 4 hours. Cell injury was then quantitated as the specific Cr^51 release from CPA-47 cells which has been adjusted for spontaneous Cr51 release.
as §4, with “(J.” for “J.”, “(1986))” for “(1986)”, “various concentrations of either: (A) MnTBAP; (B) MnTMPyP; (C) ZnTBAP; or (D) CuZnSOD” for “MnTBAP (100 μM)”, “the” for “various concentrations of”, “oxidase (100 Mu/ml),” for “oxidase,”, “Cr^51” for “Cr51”

[6] = test system: Rat pulmonary epithelial cell cultures (L2); test: Paraquat-induced injury of L2 cells, LDH release; type: cell-based; conditions: 100 μM; Paraquat 2.5 mM, 48 hours

Compound: 3,3′3″,3′″-Tetramethoxy-4,4′,4″,4′″-(porphine-5,10,15,20-tetrayl)tetrakis (benzoic acid) [Compound 10305]
Catalase [1]: 2.2 min⁻¹
SOD [2]: inactive

Compound: CNC(=N)NCCC[C@H](N)C(=O)O [L-NMA, N^G-methyl-L-arginine, reference compound]
immunostimulation-induced suppression of mitochondrial respiration (J774 macrophages [3]): restoration of the respiration to an extent comparable with that of 300 μM MnTBAP
NMDA-induced LDH release (rat cortical cells; 1 mM NOS inhibitor): unchanged
NMDA-induced aconitase inactivation (aconitase): unchanged
change of inhibition of nitrite/nitrate accumulation when applied 6 h after LPS (J774 macrophages [4]; LPS-stimulated macrophages): similar
inhibition of the production of NO (J774 macrophages [4]; cells stimulated with LPS or LPS and IFN): near-complete inhibition

Compound: C[n+]1ccc(-c2c3nc(c(-c4cc[n+](C)cc4)c4ccc([n-]4)c(-c4cc[n+](C)cc4)c4nc(c(-c5cc[n+](C)cc5)c5ccc2[n-]5)C=C4)C=C3)cc1.[Mn+3] [MnTMPyP, Mn(III) tetrakis (1-methy-4-pyridyl)porphyrin]
hydrogen peroxide-induced endothelial cell injury [5]: reduction
paraquat-induced LDH release [6]: decrease paraquat-induced LDH release

Catalase [1]: 0.59 min⁻¹
Compound: Tetra (N,N-dimethyl) 4,4′,4″,4′″-(porphine-5,10,15,20-tetrayl)-tetrakis(benzamide) manganese (III) chloride [Compound 10109]
SOD [2]: 470 μg/USOD

Compound: Trimethyl 2,2′,2″, 2′″-tetrahydroxy-4-benzoic acid-4″, 4″, 4′″ (porphine -5,10,15,20-tetrayl)tribenzoate manganese (III) chloride [Compound 10303]
protection against NMDA-induced excitotoxicity (rat cortical cells; NMDA 50 μM, 25 μM compound): 100%
protection against kainate-induced excitotoxicity (rat cortical cells; kainate 300 μM, 100 μM compound): 100%
Catalase [1]: 1.4 min⁻¹
SOD [2]: 78 μg/USOD
